Laboratory results from PubChem BioAssay AID330 (DTP/NCI, 2004).
Where “and” joins values, the source holds several entries; their conditions need not be identical. Identical values can stand only once. Toxic doses and inconclusive results are not listed.

System: P388 leukemia ip, CD2F1 mice, survival T/C
Assay: NCI In Vivo Anticancer Drug Screen. Data for tumor model P388 Leukemia (intraperitoneal) in CD2F1 (CDF1) mice
Details: endpoint: median survival time, higher = longer survival
Outline: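 Mice carrying the transplanted tumor received test compound or vehicle. Survival was recorded in each group, and the value is the treated-group measurement divided by that of the vehicle-treated control group.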

[1] = dose: 50.0 mg/kg/injection, schedule: Q01DX005 (ip), vehicle: Klucel (hydroxypropylcellulose) (HPC)
[2] = dose: 25.0 mg/kg/injection, schedule: Q04DX002 (ip), vehicle: saline with Tween-80
[3] = dose: 50.0 mg/kg/injection, schedule: Q04DX002 (ip), vehicle: saline with Tween-80
[4] = dose: 100.0 mg/kg/injection, schedule: Q04DX002 (ip), vehicle: saline with Tween-80
[5] = dose: 200.0 mg/kg/injection, schedule: Q04DX002 (ip), vehicle: saline with Tween-80

For S=C1CCCCCN1, the T/C (dose: 12.5 mg/kg/injection, schedule: Q01DX005 (ip), vehicle: Klucel (hydroxypropylcellulose) (HPC)) was 107 % of control, the T/C (dose: 25.0 mg/kg/injection, schedule: Q01DX005 (ip), vehicle: Klucel (hydroxypropylcellulose) (HPC)) was 100 % of control and the T/C [1] was 103 % of control and 104 % of control.

In the case of CC(=O)OCC1Cn2c(c(-c3ccccc3)c(=O)[nH]c2=S)O1 (stereo not given), the T/C (dose: 100.0 mg/kg/injection, schedule: Q04DX002 (ip), vehicle: Klucel (hydroxypropylcellulose) (HPC)) is reported as 106 % of control, the T/C (dose: 200.0 mg/kg/injection, schedule: Q04DX002 (ip), vehicle: Klucel (hydroxypropylcellulose) (HPC)) is reported as 107 % of control and the T/C (dose: 400.0 mg/kg/injection, schedule: Q04DX002 (ip), vehicle: Klucel (hydroxypropylcellulose) (HPC)) is reported as 110 % of control.

In the case of COc1ccc(C(C)c2cc3c(cc2OC(C)O)OCO3)cc1 (stereo not given), the T/C (dose: 60.0 mg/kg/injection, schedule: Q01DX005 (ip), vehicle: saline with Tween-80) is reported as 92 % of control, the T/C (dose: 120.0 mg/kg/injection, schedule: Q01DX005 (ip), vehicle: saline with Tween-80) is reported as 94 % of control and the T/C (dose: 240.0 mg/kg/injection, schedule: Q01DX005 (ip), vehicle: saline with Tween-80) is reported as 97 % of control.

In the case of CSC(=NNC(N)=O)SC, the T/C (dose: 100.0 mg/kg/injection, schedule: Q04DX003 (ip), vehicle: saline with Tween-80) is reported as 100 % of control, the T/C (dose: 200.0 mg/kg/injection, schedule: Q04DX003 (ip), vehicle: saline with Tween-80) is reported as 102 % of control and the T/C (dose: 400.0 mg/kg/injection, schedule: Q04DX003 (ip), vehicle: saline with Tween-80) is reported as 102 % of control.

In the case of Oc1ccc2[nH]c3cc4ccncc4cc3c2c1, the T/C [2] is reported as 106 % of control, the T/C [3] is reported as 97 % of control and the T/C [4] is reported as 122 % of control. The T/C [5] was 115 % of control.

For C/C=C\C1OC1(C)c1cc(=O)c2c(C)cc3c(c2o1)C(=O)c1c(O)c(C2CC(C)(N(C)C)C(OC(C)=O)C(C)O2)cc(C2CC(N(C)C)C(O)C(C)O2)c1C3=O (stereo not given), the T/C (dose: 1.0 mg/kg/injection, schedule: Q01DX009 (ip), vehicle: saline + alcohol) was 122 % of control, the T/C (dose: 1.0 mg/kg/injection, schedule: Q01DX010 (ip), vehicle: saline) was 154 % of control and the T/C (dose: 2.0 mg/kg/injection, schedule: Q01DX010 (ip), vehicle: saline) was 95 % of control.

In the case of CC(=O)Oc1ccccc1C(=O)OC(C)c1ccccc1 (stereo not given), the T/C [1] is reported as 100 % of control, the T/C (dose: 100.0 mg/kg/injection, schedule: Q01DX005 (ip), vehicle: Klucel (hydroxypropylcellulose) (HPC)) is reported as 98 % of control and the T/C (dose: 200.0 mg/kg/injection, schedule: Q01DX005 (ip), vehicle: Klucel (hydroxypropylcellulose) (HPC)) is reported as 104 % of control.

For COc1cc([N+](=O)[O-])ccc1C, the T/C (dose: 100.0 mg/kg/injection, schedule: Q04DX003 (ip), vehicle: other) was 104 % of control, the T/C (dose: 200.0 mg/kg/injection, schedule: Q04DX003 (ip), vehicle: other) was 100 % of control and the T/C (dose: 400.0 mg/kg/injection, schedule: Q04DX003 (ip), vehicle: other) was 100 % of control.

With COc1cc2c(cc1C(C)c1ccc(OCc3ccccc3)cc1)OCO2 (stereo not given) the T/C (dose: 25.0 mg/kg/injection, schedule: Q01DX005 (ip), vehicle: distilled water + Tween-80) was 99 % of control, the T/C (dose: 50.0 mg/kg/injection, schedule: Q01DX005 (ip), vehicle: distilled water + Tween-80) was 98 % of control and the T/C (dose: 100.0 mg/kg/injection, schedule: Q01DX005 (ip), vehicle: distilled water + Tween-80) was 90 % of control and 94 % of control. The T/C (dose: 200.0 mg/kg/injection, schedule: Q01DX005 (ip), vehicle: distilled water + Tween-80) was 90 % of control and 91 % of control.

For C[Si](C)(C[P+](=O)[O][Sn]([CH3])([CH3])[O][P+](=O)C[Si](C)(C)c1ccccc1)c1ccccc1 (stereo not given), the T/C (dose: 3.75 mg/kg/injection, schedule: Q01DX005 (ip), vehicle: saline with Tween-80) was 100 % of control and the T/C (dose: 7.5 mg/kg/injection, schedule: Q01DX005 (ip), vehicle: saline with Tween-80) was 93 % of control.

In the case of CC1(C)OC2(C)CCC1C1C2N1C(=O)Nc1ccccc1 (stereo not given), the T/C (dose: 50.0 mg/kg/injection, schedule: Q01DX005 (ip), vehicle: saline with Tween-80) is reported as 101 % of control, the T/C (dose: 100.0 mg/kg/injection, schedule: Q01DX005 (ip), vehicle: saline with Tween-80) is reported as 106 % of control and the T/C (dose: 200.0 mg/kg/injection, schedule: Q01DX005 (ip), vehicle: saline with Tween-80) is reported as 101 % of control.

Cn1c2ccccc2c2nnc(N/N=C/c3ccccn3)nc21 was tested, and the T/C [4] was 98 % of control and 111 % of control and 113 % of control, the T/C [5] was 106 % of control and 113 % of control and 114 % of control and the T/C (dose: 400.0 mg/kg/injection, schedule: Q04DX002 (ip), vehicle: saline with Tween-80) was 106 % of control and 113 % of control. The T/C (dose: 800.0 mg/kg/injection, schedule: Q04DX002 (ip), vehicle: saline with Tween-80) was 104 % of control and 114 % of control.

With COc1c2c(c(OC)c3c1C(=O)C(=O)C=C3O)OCO2 the T/C (dose: 60.0 mg/kg/injection, schedule: Q01DX005 (ip), vehicle: Klucel (hydroxypropylcellulose) (HPC)) was 104 % of control and the T/C (dose: 120.0 mg/kg/injection, schedule: Q01DX005 (ip), vehicle: Klucel (hydroxypropylcellulose) (HPC)) was 113 % of control.

For CCC12C=CCN3CCC4(c5cc(C6c7[nH]c8ccccc8c7CCN7CCCCC67)c(OC)cc5N(C)C4C(O)(C(=O)OC)C1OC(C)=O)C32 (stereo not given), the T/C (dose: 0.06 mg/kg/injection, schedule: Q01DX009 (ip), vehicle: Klucel (hydroxypropylcellulose) (HPC)) was 115 % of control, the T/C (dose: 0.13 mg/kg/injection, schedule: Q01DX009 (ip), vehicle: Klucel (hydroxypropylcellulose) (HPC)) was 122 % of control and the T/C (dose: 0.13 mg/kg/injection, schedule: Q04DX003 (ip), vehicle: water) was 95 % of control. The T/C (dose: 0.25 mg/kg/injection, schedule: Q01DX009 (ip), vehicle: Klucel (hydroxypropylcellulose) (HPC)) was 123 % of control, the T/C (dose: 0.25 mg/kg/injection, schedule: Q04DX003 (ip), vehicle: water) was 112 % of control and the T/C (dose: 0.5 mg/kg/injection, schedule: Q04DX003 (ip), vehicle: water) was 113 % of control. For the same molecule, the T/C (dose: 0.67 mg/kg/injection, schedule: Q01DX009 (ip), vehicle: Klucel (hydroxypropylcellulose) (HPC)) was 103 % of control, the T/C (dose: 1.0 mg/kg/injection, schedule: Q04DX003 (ip), vehicle: water) was 103 % of control and the T/C (dose: 1.5 mg/kg/injection, schedule: Q01DX009 (ip), vehicle: Klucel (hydroxypropylcellulose) (HPC)) was 105 % of control. For the same molecule, the T/C (dose: 2.0 mg/kg/injection, schedule: Q04DX003 (ip), vehicle: water) was 91 % of control.

With CN1CCN(CN2C(=O)C3C4C=CC(C3C2=O)C2C3C(=O)N(CN5CCN(C)CC5)C(=O)C3C42)CC1 (stereo not given) the T/C (dose: 6.25 mg/kg/injection, schedule: Q01DX009 (ip), vehicle: water) was 103 % of control, the T/C (dose: 7.5 mg/kg/injection, schedule: Q01DX005 (ip), vehicle: water) was 100 % of control and the T/C (dose: 7.5 mg/kg/injection, schedule: Q01DX009 (ip), vehicle: water) was 99 % of control. The T/C (dose: 12.5 mg/kg/injection, schedule: Q01DX009 (ip), vehicle: water) was 104 % of control, the T/C (dose: 15.0 mg/kg/injection, schedule: Q01DX005 (ip), vehicle: water) was 101 % of control and 96 % of control and the T/C (dose: 15.0 mg/kg/injection, schedule: Q01DX009 (ip), vehicle: water) was 105 % of control. The T/C (dose: 24.8 mg/kg/injection, schedule: Q01DX009 (ip), vehicle: water) was 113 % of control, the T/C (dose: 25.0 mg/kg/injection, schedule: Q01DX009 (ip), vehicle: saline) was 99 % of control and the T/C (dose: 25.0 mg/kg/injection, schedule: Q01DX009 (ip), vehicle: water) was 104 % of control. The T/C (dose: 26.8 mg/kg/injection, schedule: Q01DX009 (ip), vehicle: water) was 106 % of control and 118 % of control, the T/C (dose: 30.0 mg/kg/injection, schedule: Q01DX005 (ip), vehicle: water) was 107 % of control and 119 % of control and the T/C (dose: 30.0 mg/kg/injection, schedule: Q01DX009 (ip), vehicle: water) was 116 % of control and 121 % of control. For the same molecule, the T/C (dose: 44.6 mg/kg/injection, schedule: Q01DX009 (ip), vehicle: water) was 151 % of control, the T/C (dose: 50.0 mg/kg/injection, schedule: Q01DX009 (ip), vehicle: saline) was 106 % of control and the T/C (dose: 60.0 mg/kg/injection, schedule: Q01DX005 (ip), vehicle: water) was 151 % of control. For the same molecule, the T/C (dose: 60.0 mg/kg/injection, schedule: Q01DX009 (ip), vehicle: water) was 165 % of control and 161 % of control, the T/C (dose: 68.8 mg/kg/injection, schedule: Q01DX009 (ip), vehicle: water) was 172 % of control and the T/C (dose: 74.4 mg/kg/injection, schedule: Q01DX009 (ip), vehicle: water) was 164 % of control and 190 % of control. The T/C (dose: 100.0 mg/kg/injection, schedule: Q01DX009 (ip), vehicle: saline) was 211 % of control, the T/C (dose: 100.0 mg/kg/injection, schedule: Q01DX009 (ip), vehicle: water) was 200 % of control and 207 % of control and the T/C (dose: 120.0 mg/kg/injection, schedule: Q01DX009 (ip), vehicle: water) was 111 % of control. The T/C (dose: 124.0 mg/kg/injection, schedule: Q01DX009 (ip), vehicle: water) was 105 % of control.

CC1(C)C=Cc2c(ccc3c(=O)c(-c4ccc5c(c4)OCO5)coc23)O1 was tested, and the T/C [2] was 107 % of control, the T/C [3] was 101 % of control and the T/C [4] was 99 % of control and 108 % of control.
